Patent publication US12304932B2, “PACAP stabilized peptide” (SENJU PHARMACEUTICAL CO., LTD., priority 2017, dated 2025)
Square brackets hold non-standard residues; d marks the D form. Peptide text beside a SMILES is read from it. * marks the point of attachment. Ala(1H-tetrazol-5-yl) = N[C@@H](Cc1nnn[nH]1)C(=O)O; Ms = CS(=O)(=O)*

assay: Peptide stability tests 2 and 3: Tris buffer pH 7.0, stored at 60° C., HPLC conditions 2; assay type: physicochemical; conditions: 100 μM peptide, Tris buffer pH 7.0, 60° C., 2 weeks
In short: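 Peptides at 100 μM in Tris buffer pH 7.0, held 1 or 2 weeks at 60° C. An unstored sample served as standard. Water-corrected survival rate by HPLC on C18 at 40° C., 0.1% formic acid water/acetonitrile gradient, 220 nm detection.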

**Q.** With `CC[C@H](C)[C@H](NC(=O)CNC(=O)[C@H](Cc1nnn[nH]1)NC(=O)[C@H](CO)NC(=O)[C@H](Cc1c[nH]cn1)NS(C)(=O)=O)C(=O)N[C@@H](Cc1ccccc1)C(=O)N[C@H](C(=O)N[C@@H](Cc1nnn[nH]1)C(=O)N[C@@H](C)C(=O)N[C@@H](Cc1ccc(O)cc1)C(=O)N[C@@H](CO)C(=O)N[C@@H](CCCNC(=N)N)C(=O)N[C@@H](Cc1ccc(O)cc1)C(=O)N[C@@H](CCCNC(=N)N)C(=O)N[C@@H](CCCCN)C(=O)N[C@@H](CCC(N)=O)C(=O)N[C@@H](CC(C)C)C(=O)N[C@@H](C)C(=O)N[C@H](C(=O)N[C@@H](CCCCN)C(=O)N[C@@H](CCCCN)C(=O)N[C@@H](Cc1ccc(O)cc1)C(=O)N[C@@H](CC(C)C)C(=O)N[C@@H](C)C(=O)N[C@@H](C)C(=O)N[C@H](C(=O)N[C@@H](CC(C)C)C(N)=O)C(C)C)C(C)C)[C@@H](C)O` [Peptide 29] (Ms-HS[Ala(1H-tetrazol-5-yl)]GIFT[Ala(1H-tetrazol-5-yl)]AYSRYRKQLAVKKYLAAVL-NH2) as the molecule, how does the survival rate after correction for water, 60° C., 2-week storage (Table 7-2) read?
**A.** Its survival rate after correction for water, 60° C., 2-week storage (Table 7-2) is 91.9%.

**Q.** For `CC[C@H](C)[C@H](NC(=O)[C@H](C)NC(=O)[C@H](Cc1nnn[nH]1)NC(=O)[C@H](CO)NC(=O)[C@H](Cc1c[nH]cn1)NS(C)(=O)=O)C(=O)N[C@@H](Cc1ccccc1)C(=O)N[C@H](C(=O)N[C@@H](Cc1nnn[nH]1)C(=O)N[C@@H](CO)C(=O)N[C@@H](Cc1ccc(O)cc1)C(=O)N[C@@H](CO)C(=O)N[C@@H](CCCNC(=N)N)C(=O)N[C@@H](Cc1ccc(O)cc1)C(=O)N[C@@H](CCCNC(=N)N)C(=O)N[C@@H](CCCCN)C(=O)N[C@@H](CCC(N)=O)C(=O)N[C@@H](CC(C)C)C(=O)N[C@@H](C)C(=O)N[C@H](C(=O)N[C@@H](CCCCN)C(=O)N[C@@H](CCCCN)C(=O)N[C@@H](Cc1ccc(O)cc1)C(=O)N[C@@H](CC(C)C)C(=O)N[C@@H](C)C(=O)N[C@@H](C)C(=O)N[C@H](C(=O)N[C@@H](CC(C)C)C(N)=O)C(C)C)C(C)C)[C@@H](C)O` [Peptide 30] (Ms-HS[Ala(1H-tetrazol-5-yl)]AIFT[Ala(1H-tetrazol-5-yl)]SYSRYRKQLAVKKYLAAVL-NH2), which survival rate after correction for water, 60° C., 2-week storage (Table 7-2) is on record?
**A.** Its survival rate after correction for water, 60° C., 2-week storage (Table 7-2) is 92.2%.

**Q.** With `CC[C@H](C)[C@H](NC(=O)[C@H](C)NC(=O)[C@H](Cc1nnn[nH]1)NC(=O)[C@H](CO)NC(=O)[C@H](Cc1c[nH]cn1)NS(C)(=O)=O)C(=O)N[C@@H](Cc1ccccc1)C(=O)N[C@H](C(=O)N[C@@H](Cc1nnn[nH]1)C(=O)N[C@@H](CO)C(=O)N[C@@H](Cc1ccc(O)cc1)C(=O)N[C@@H](CO)C(=O)N[C@@H](CCCNC(=N)N)C(=O)N[C@@H](Cc1ccc(O)cc1)C(=O)N[C@@H](CCCNC(=N)N)C(=O)N[C@@H](CCCCN)C(=O)N[C@@H](CCC(N)=O)C(=O)N[C@@H](C)C(=O)N[C@@H](C)C(=O)N[C@H](C(=O)N[C@@H](CCCCN)C(=O)N[C@@H](CCCCN)C(=O)N[C@@H](Cc1ccc(O)cc1)C(=O)N[C@@H](CC(C)C)C(=O)N[C@@H](C)C(=O)N[C@@H](C)C(=O)N[C@H](C(=O)N[C@@H](CC(C)C)C(N)=O)C(C)C)C(C)C)[C@@H](C)O` [Peptide 31] (Ms-HS[Ala(1H-tetrazol-5-yl)]AIFT[Ala(1H-tetrazol-5-yl)]SYSRYRKQAAVKKYLAAVL-NH2) as the molecule, how does the survival rate after correction for water, 60° C., 2-week storage (Table 7-2) read?
**A.** Its survival rate after correction for water, 60° C., 2-week storage (Table 7-2) is 90.1%.

**Q.** Which survival rate after correction for water, 60° C., 2-week storage (Table 7-2) does the source give for `CC[C@H](C)[C@H](NC(=O)[C@H](C)NC(=O)[C@H](Cc1nnn[nH]1)NC(=O)[C@H](CO)NC(=O)[C@H](Cc1c[nH]cn1)NC(C)=O)C(=O)N[C@@H](Cc1ccccc1)C(=O)N[C@H](C(=O)N[C@@H](Cc1nnn[nH]1)C(=O)N[C@@H](CO)C(=O)N[C@@H](Cc1ccc(O)cc1)C(=O)N[C@@H](CO)C(=O)N[C@@H](CCCNC(=N)N)C(=O)N[C@@H](Cc1ccc(O)cc1)C(=O)N[C@@H](CCCNC(=N)N)C(=O)N[C@@H](CCCCN)C(=O)N[C@@H](CCC(N)=O)C(=O)N[C@@H](C)C(=O)N[C@@H](C)C(=O)N[C@H](C(=O)N[C@@H](CCCCN)C(=O)N[C@@H](CCCCN)C(=O)N[C@@H](Cc1ccc(O)cc1)C(=O)N[C@@H](CC(C)C)C(=O)N[C@@H](C)C(=O)N[C@@H](C)C(=O)N[C@H](C(=O)N[C@@H](CC(C)C)C(N)=O)C(C)C)C(C)C)[C@@H](C)O` [Peptide 32] (Ac-HS[Ala(1H-tetrazol-5-yl)]AIFT[Ala(1H-tetrazol-5-yl)]SYSRYRKQAAVKKYLAAVL-NH2) here?
**A.** The survival rate after correction for water, 60° C., 2-week storage (Table 7-2) was 88.7%.

**Q.** For `CC[C@H](C)[C@H](NC(=O)[C@H](C)NC(=O)[C@H](Cc1nnn[nH]1)NC(=O)[C@H](C)NC(=O)[C@H](Cc1c[nH]cn1)NC(C)=O)C(=O)N[C@@H](Cc1ccccc1)C(=O)N[C@H](C(=O)N[C@@H](Cc1nnn[nH]1)C(=O)N[C@@H](CO)C(=O)N[C@@H](Cc1ccc(O)cc1)C(=O)N[C@@H](CO)C(=O)N[C@@H](CCCNC(=N)N)C(=O)N[C@@H](Cc1ccc(O)cc1)C(=O)N[C@@H](CCCNC(=N)N)C(=O)N[C@@H](CCCCN)C(=O)N[C@@H](CCC(N)=O)C(=O)N[C@@H](C)C(=O)N[C@@H](C)C(=O)N[C@H](C(=O)N[C@@H](CCCCN)C(=O)N[C@@H](CCCCN)C(=O)N[C@@H](Cc1ccc(O)cc1)C(=O)N[C@@H](CC(C)C)C(=O)N[C@@H](C)C(=O)N[C@@H](C)C(=O)N[C@H](C(=O)N[C@@H](CC(C)C)C(N)=O)C(C)C)C(C)C)[C@@H](C)O` [Peptide 33] (Ac-HA[Ala(1H-tetrazol-5-yl)]AIFT[Ala(1H-tetrazol-5-yl)]SYSRYRKQAAVKKYLAAVL-NH2), which survival rate after correction for water, 60° C., 2-week storage (Table 7-2) is on record?
**A.** Its survival rate after correction for water, 60° C., 2-week storage (Table 7-2) is 85.3%.

**Q.** Which survival rate after correction for water, 60° C., 2-week storage (Table 7-2) does the source give for `CC[C@H](C)[C@H](NC(=O)[C@H](C)NC(=O)[C@H](Cc1nnn[nH]1)NC(=O)[C@H](CO)NC(=O)[C@H](Cc1c[nH]cn1)NC(C)=O)C(=O)N[C@@H](Cc1ccccc1)C(=O)N[C@H](C(=O)N[C@@H](Cc1nnn[nH]1)C(=O)N[C@@H](CO)C(=O)N[C@@H](Cc1ccc(O)cc1)C(=O)N[C@@H](CO)C(=O)N[C@@H](CCCNC(=N)N)C(=O)N[C@@H](Cc1ccc(O)cc1)C(=O)N[C@@H](CCCNC(=N)N)C(=O)N[C@@H](CCCCN)C(=O)N[C@@H](C)C(=O)N[C@@H](C)C(=O)N[C@@H](C)C(=O)N[C@H](C(=O)N[C@@H](CCCCN)C(=O)N[C@@H](CCCCN)C(=O)N[C@@H](Cc1ccc(O)cc1)C(=O)N[C@@H](CC(C)C)C(=O)N[C@@H](C)C(=O)N[C@@H](C)C(=O)N[C@H](C(=O)N[C@@H](CC(C)C)C(N)=O)C(C)C)C(C)C)[C@@H](C)O` [Peptide 34] (Ac-HS[Ala(1H-tetrazol-5-yl)]AIFT[Ala(1H-tetrazol-5-yl)]SYSRYRKAAAVKKYLAAVL-NH2) here?
**A.** Its survival rate after correction for water, 60° C., 2-week storage (Table 7-2) is 96.9%.
